In PubChem BioAssay AID1918936 (Molecular Pharmacology Branch, DTP, NCI, 2023):
pIC50: −log10 of the molar value.

Tested on: 349418-098-R-PDC complex spheroid viability
Assay: Anticancer human tumor 349418-098-R-PDC patient-derived lung adenocarcinoma cell line growth inhibition
Details: for pIC50: curve of first compound; for viability, T/C: stronger effect = lower value
Summary of the method: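 Multicellular complex spheroids of tumor cells with human endothelial cells (HUVEC) and mesenchymal stem cells; the LSD1 inhibitor iadademstat was combined with standard-of-care or investigational agents. Top concentration at or near clinical Cmax, half-log dilutions; final DMSO ≤0.25%.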

[1] = second compound 0.1 µM, first compound 0.0316 µM
[2] = second compound 0.1 µM, first compound 0.1 µM
[3] = second compound 0.1 µM, first compound 0.316 µM
[4] = second compound 0.1 µM, first compound 1 µM
[5] = second compound 0.1 µM, first compound 3.16 µM
[6] = second compound 0.1 µM, first compound 10 µM
[7] = second compound 0.316 µM, first compound 0.0316 µM
[8] = second compound 0.316 µM, first compound 0.1 µM
[9] = second compound 0.316 µM, first compound 0.316 µM
[10] = second compound 0.316 µM, first compound 1 µM
[11] = second compound 0.316 µM, first compound 3.16 µM
[12] = second compound 0.316 µM, first compound 10 µM
[13] = second compound 1 µM, first compound 0.0316 µM
[14] = second compound 1 µM, first compound 0.1 µM
[15] = second compound 1 µM, first compound 0.316 µM
[16] = second compound 1 µM, first compound 1 µM
[17] = second compound 1 µM, first compound 3.16 µM
[18] = second compound 1 µM, first compound 10 µM
[19] = second compound 3.16 µM, first compound 0.0316 µM
[20] = second compound 3.16 µM, first compound 0.1 µM
[21] = second compound 3.16 µM, first compound 0.316 µM
[22] = second compound 3.16 µM, first compound 1 µM
[23] = second compound 3.16 µM, first compound 3.16 µM
[24] = second compound 3.16 µM, first compound 10 µM
[25] = second compound 10 µM, first compound 0.0316 µM
[26] = second compound 10 µM, first compound 0.1 µM
[27] = second compound 10 µM, first compound 0.316 µM
[28] = second compound 10 µM, first compound 1 µM
[29] = second compound 10 µM, first compound 3.16 µM
[30] = second compound 10 µM, first compound 10 µM
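Note: spheroids exposed to agents for seven days before readout.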
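Throughout, for viability, T/C: 100% = DMSO vehicle control wells.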

`CC1(C)CCC(CN2CCN(c3ccc(C(=O)NS(=O)(=O)c4ccc(NCC5CCOCC5)c([N+](=O)[O-])c4)c(Oc4cnc5[nH]ccc5c4)c3)CC2)=C(c2ccc(Cl)cc2)C1` + NC1CC1c1ccc(-c2cccc(O)c2)cc1 gave a pIC50 (second compound 0.1 µM) of 5.73, a pIC50 (second compound 0.316 µM) of 5.73 and a pIC50 (second compound 1 µM) of 5.69. The pIC50 (second compound 3.16 µM) was 5.69, the pIC50 (second compound 10 µM) was 5.77 and the viability, T/C [1] was 111%. For the same compound, the viability, T/C [2] was 106%, the viability, T/C [3] was 104% and the viability, T/C [4] was 80.5%. For the same compound, the viability, T/C [5] was 23.9%, the viability, T/C [6] was 0.38% and the viability, T/C [7] was 113%. For the same compound, the viability, T/C [8] was 111%, the viability, T/C [9] was 108% and the viability, T/C [10] was 82.5%. For the same compound, the viability, T/C [11] was 22.9%, the viability, T/C [12] was 0.15% and the viability, T/C [13] was 119%. For the same compound, the viability, T/C [14] was 113%, the viability, T/C [15] was 108% and the viability, T/C [16] was 94.1%. It also gave a viability, T/C [17] of 22.5%, a viability, T/C [18] of 0.17% and a viability, T/C [19] of 118%. The viability, T/C [20] was 109%, the viability, T/C [21] was 112% and the viability, T/C [22] was 95.2%. It also gave a viability, T/C [23] of 21.9%, a viability, T/C [24] of 0.16% and a viability, T/C [25] of 96.3%. For the same compound, the viability, T/C [26] was 98.9%, the viability, T/C [27] was 93.2% and the viability, T/C [28] was 83.7%. The viability, T/C [29] was 10.5% and the viability, T/C [30] was 0.58%.
Compound `CC1COCCN1c1cc(C2(S(C)(=N)=O)CC2)nc(-c2ccnc3[nH]ccc23)n1` (stereo not given) + NC1CC1c1ccc(-c2cccc(O)c2)cc1 has a pIC50 (second compound 0.1 µM) of 5.98, a pIC50 (second compound 0.316 µM) of 5.99 and a pIC50 (second compound 1 µM) of 6.03. It also gave a pIC50 (second compound 3.16 µM) of 5.97, a pIC50 (second compound 10 µM) of 6.15 and a viability, T/C [1] of 114%. The viability, T/C [2] was 113%, the viability, T/C [3] was 111% and the viability, T/C [4] was 51.8%. It also gave a viability, T/C [5] of 11.8%, a viability, T/C [6] of 10.9% and a viability, T/C [7] of 120%. The viability, T/C [8] was 111%, the viability, T/C [9] was 104% and the viability, T/C [10] was 51.2%. It also gave a viability, T/C [11] of 11.5%, a viability, T/C [12] of 9.93% and a viability, T/C [13] of 115%. The viability, T/C [14] was 116%, the viability, T/C [15] was 115% and the viability, T/C [16] was 45.6%. It also gave a viability, T/C [17] of 13.9%, a viability, T/C [18] of 10.7% and a viability, T/C [19] of 118%. For the same compound, the viability, T/C [20] was 103%, the viability, T/C [21] was 115% and the viability, T/C [22] was 52.3%. It also gave a viability, T/C [23] of 13.3%, a viability, T/C [24] of 9.27% and a viability, T/C [25] of 91.3%. It also gave a viability, T/C [26] of 94.1%, a viability, T/C [27] of 86.6% and a viability, T/C [28] of 34.3%. The viability, T/C [29] was 11.2% and the viability, T/C [30] was 6.83%.
